Data as given in publication PMC5615050 (Scientific Reports, 2017).
Where “and” joins values, the source holds several entries; their conditions need not be identical. Equal values may be shown once. Read-outs that look alike come from different tables or passages of the source.

Key:
[1] = target: Wild type H5N1 NA (Influenza A virus, UniProt Q6DPL2); assay: biochemical; format: biochemical
[2] = target: Bac-NA^WT H1N1 (Influenza A virus, UniProt P03470); assay: biochemical
[3] = target: Wild type H1N1 NA (Influenza A virus, UniProt P03470); assay: biochemical
Chain of Wild type H1N1 NA (P03470 whole entry, looked up): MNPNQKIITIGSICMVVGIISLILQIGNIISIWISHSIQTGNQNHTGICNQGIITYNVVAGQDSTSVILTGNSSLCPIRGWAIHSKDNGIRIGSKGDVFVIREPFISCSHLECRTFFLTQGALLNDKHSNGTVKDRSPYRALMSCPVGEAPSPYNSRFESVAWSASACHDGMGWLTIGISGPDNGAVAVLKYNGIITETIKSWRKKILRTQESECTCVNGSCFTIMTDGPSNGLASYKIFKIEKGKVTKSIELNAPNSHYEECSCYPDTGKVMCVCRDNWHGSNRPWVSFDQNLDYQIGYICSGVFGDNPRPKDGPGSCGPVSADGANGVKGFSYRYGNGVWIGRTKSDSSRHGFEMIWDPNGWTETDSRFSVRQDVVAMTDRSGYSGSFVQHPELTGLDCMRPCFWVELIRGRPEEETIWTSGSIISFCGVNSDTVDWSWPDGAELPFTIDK

[4] = tested on: Influenza A virus (A/WSN/33) H1N1; assay: microbe, parasite or virus in culture; format: cell-based; settings: for IC50: read-out: IC50 H1N1 (concentration to reduce the CPE of the virus by 50%)
[5] = tested on: NA; settings: cited from earlier work
[6] = in vitro; settings: dog

Chain of Wild type H5N1 NA (Q6DPL2 whole entry, looked up): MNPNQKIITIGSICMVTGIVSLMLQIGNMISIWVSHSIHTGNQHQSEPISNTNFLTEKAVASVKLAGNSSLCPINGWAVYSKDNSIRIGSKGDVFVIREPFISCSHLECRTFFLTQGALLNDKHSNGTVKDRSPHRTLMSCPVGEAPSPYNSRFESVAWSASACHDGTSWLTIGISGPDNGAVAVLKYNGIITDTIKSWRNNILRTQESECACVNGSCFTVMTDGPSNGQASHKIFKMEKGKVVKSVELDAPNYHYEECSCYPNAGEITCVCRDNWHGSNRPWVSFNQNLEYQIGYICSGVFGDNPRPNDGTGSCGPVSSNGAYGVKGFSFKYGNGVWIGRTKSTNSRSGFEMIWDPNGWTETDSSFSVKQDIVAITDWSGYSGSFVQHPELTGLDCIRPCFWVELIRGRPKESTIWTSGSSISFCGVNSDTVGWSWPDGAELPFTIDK
Chain of Bac-NA^WT H1N1 (P03470 whole entry, looked up): as the sequence (P03470 whole entry, looked up) above

| Compound | IC50 [1] [µM] | IC50 [2] [µM] | IC50 ([3]; NA inhibition, IC50 H1N1) [µM] | IC50 [4] [µM] | IC50 [5] [µM] | IC50 ([1]; read-out: IC50 Wild type H5N1) [µM] | IC50 ([3]; IC50 Wild type H1N1) | CC50 [6] [µM] | IC50 ([4]; Influenza A virus, MDCK) [µM] | concentration showing consistent blue color (living cells) in CPE assay [4] [µM] |
| --- | --- | --- | --- | --- | --- | --- | --- | --- | --- | --- |
| CC1OC(OC2CC(O)C3(CO)C4C(O)CC5(C)C(C6COC(O)C6)CCC5(O)C4CCC3(O)C2)C(O)C(O)C1O (stereo not drawn) [BPR1P0003S0] | 2.62 ± 0.96 | 2.18 ± 0.03 | 37.3 ± 13.4 |  |  |  |  |  |  |  |
| CC12CCC(O)CC1CCC1C2CC(O)C2(C)C(C3=CC(=O)OC3)CCC12O (stereo not drawn) [BPR1P0007S0] | 2.49 ± 1.43 | 1.79 ± 0.01 | 36.5 ± 5.02 |  |  |  |  |  |  |  |
| CC12CCC(O)CC1CCC1C2CCC2(C)C(C3=CC(=O)OC3)CCC12O (stereo not drawn) [BPR1P0008S0] | 2.56 ± 0.2 | 2 | 31.4 ± 7.33 |  |  |  |  |  |  |  |
| CCC(CC)O[C@@H]1C=C(C(=O)O)C[C@H](N)[C@H]1NC(C)=O [GS4071, oseltamivir carboxylate, reference compound] |  |  |  | 0.02 ± 0.0031 | […] |  |  |  |  |  |
| O=C(Nc1ccc2c(O)cc(S(=O)(=O)O)cc2c1)Nc1ccc2c(O)cc(S(=O)(=O)O)cc2c1 [NSC45174] | 16.7 ± 1.67 |  |  | 36.5 ± 1.19 |  | < 20 | < 10 µM and 5.29 µM | > 100 | 36.5 |  |
| O=C(Nc1ccc2c(O)c(/N=N/c3ccc4c(O)cc(S(=O)(=O)O)cc4c3)c(S(=O)(=O)O)cc2c1)c1ccccc1 [NSC45609] | 13 ± 0.78 |  |  | 16.5 ± 0.63 |  | < 20 | < 10 µM and 3.67 µM | > 100 | 16.5 |  |
| Nc1ccc2c(O)c(/N=N/c3ccc4c(O)cc(S(=O)(=O)O)cc4c3)c(S(=O)(=O)O)cc2c1 [NSC162535] | 18.7 ± 1.89 |  |  | 61.45 ± 0.17 |  | < 20 | < 10 µM and 4.49 µM | > 100 | 61.5 | ≥ 50 |
